Measurements from US20250042886A1, “BIS(HETERO)ARYL THIOETHER OXADIAZINES AS FUNGICIDAL COMPOUNDS” (Bayer Aktiengesellschaft, priority 2021, published 2025).

What was measured:
[1] = Measurement of Log P values by HPLC on reversed phase columns (EEC directive 79/831 Annex V.A8); assay type: physicochemical; conditions: method [a]: LC-UV, acidic range, 0.1% formic acid in water and acetonitrile
[2] = tested on: Botrytis cinerea; assay: Botrytis cinerea in vitro cell test; assay type: cell-based; conditions: 144 h, 50 μMol/l of active ingredient, liquid culture, 6 days incubation, read-out: efficacy (inhibition of fungal growth)
Experimental: B-9. Botrytis cinerea In Vitro Cell Test • Solvent: DMSO • Culture medium: 1 g KH2PO4 (VWR), 1 g K2HPO4 (VWR), 0.5 g Urea (VWR), 3 g KNO3 (Prolabo), 10 g saccharose (VWR), 0.5 g MgSO4, 7H2O (Sigma), 0.07 g CaCl2, 2H2O (Prolabo), 0.2 mg MnSO4, H2O (Sigma), 0.6 mg CuSO4, 5H2O (Sigma), 7.9 mg ZnSO4, 7H2O (Sigma), 0.1 mg H3BO3 (Merck), 0.14 mg NaMoO4, 2H2O (Sigma), 2 mg thiamine (Sigma), 0.1 mg biotine (VWR), 4 mg FeSO4, 7H2O (Sigma), QSP 1 liter • Inoculum: spore suspension Fungicides were solubilized in DMSO and the solution used to prepare the required range of concentrations. […] A spore suspension of B. cinerea was prepared and diluted to the desired spore density. Fungicides were evaluated for their ability to inhibit spore germination and mycelium growth in liquid culture assay. The compounds were added in the desired concentration to the culture medium with spores. After 6 days incubation, fungi-toxicity of compounds was determined by spectrometric measurement of mycelium growth. Inhibition of fungal growth was determined by comparing the absorbance values in wells containing the fungicides with the absorbance in control wells without fungicides.

[3] = Table 1, compounds of formula (I)
[4] = Table 3, intermediates of formula (27)

Row | Structure (SMILES) | chromatographic logP [1, 3] | further results
1 | COc1ccc(Sc2nnc3ccccc3c2C2=NOC[C@H](c3ccc(C)s3)N2)cc1 (racemic) [Compound I-077] | 3.22 | –
2 | Cc1ccc([C@H]2CON=C(c3c(Sc4ccc(Cl)cc4)nnc4ccccc34)N2)s1 (racemic) [Compound I-070] | 3.62 | –
3 | Cc1ccc(C)c(Sc2nnc(C)c(C)c2C2=NOC[C@H](c3cc(C)sc3C)N2)c1 (racemic) [Compound I-057] | 3.66 | –
4 | NC(=NO)c1c(Br)nnc2ccccc12 [Compound 29-02] | – | chromatographic logP ([1]; Table 4, intermediates of formula (29)): 0.31
5 | Cc1ccc([C@@H]2CON=C(c3c(Sc4ccc(OC(F)(F)F)cc4)nnc(C)c3C)N2)s1 (racemic) [Compound I-116] | 3.52 | –
6 | Cc1cc([C@H]2CON=C(c3c(Sc4cc(Cl)cc(Cl)c4)nnc(C)c3C)N2)c(C)s1 (racemic) [Compound I-061] | 4.04 | inhibition at 50 µM [2]: 70 to 79%
7 | C=CCON=C(N)c1c(Br)nnc2ccccc12 [Compound 27-02] | – | chromatographic logP [1, 4]: 1.81
8 | Cc1ccc([C@H]2CON=C(c3c(Sc4ccncc4)nnc(C)c3C)N2)s1 (racemic) [Compound I-072] | 1.3 | –
9 | Cc1cc([C@H]2CON=C(c3c(Sc4ccncc4)nnc(C)c3C)N2)c(C)s1 (racemic) [Compound I-041] | 1.58 | –
10 | Cc1ccc([C@H]2CON=C(c3c(Sc4ccc(OC(F)(F)F)cc4)nnc4ccccc34)N2)s1 (racemic) [Compound I-112] | 3.96 | inhibition at 50 µM [2]: 70 to 79%
11 | Cc1cc([C@@H]2CON=C(c3c(Sc4ccc(F)cc4)nnc(C)c3C)N2)c(C)s1 (racemic) [Compound I-081] | 3.18 | –
12 | Cc1ccc([C@H]2CON=C(c3c(Sc4ccc(Cl)cc4)nnc(C)c3C)N2)s1 (racemic) [Compound I-064] | 3.14 | –
13 | Cc1ccc([C@@H]2CON=C(c3c(Sc4ccc(F)cc4F)nnc(C)c3C)N2)s1 (racemic) [Compound I-073] | 2.95 | inhibition at 50 µM [2]: 80 to 89%
14 | Cc1ccc([C@@H]2CON=C(c3c(Sc4ccc(C(C)(C)C)cc4)nnc(C)c3C)N2)s1 (racemic) [Compound I-065] | 3.95 | –
15 | Cc1cc([C@@H]2CON=C(c3c(Sc4ccc(F)cc4F)nnc(C)c3C)N2)c(C)s1 (racemic) [Compound I-051] | 3.32 | –
16 | Cc1cc([C@@H]2CON=C(c3c(Sc4ccc(C(F)(F)F)cc4)nnc(C)c3C)N2)c(C)s1 (racemic) [Compound I-076] | 3.71 | –
17 | Cc1ccc([C@@H]2CON=C(c3c(Sc4ccc(C(F)(F)F)cc4)nnc(C)c3C)N2)s1 (racemic) [Compound I-128] | 3.36 | –
18 | Cc1ccc([C@H]2CON=C(c3c(Sc4ccc(Cl)c(Cl)c4)nnc(C)c3C)N2)s1 (racemic) [Compound I-137] | 3.55 | inhibition at 50 µM [2]: 90 to 100%
19 | FC(F)(F)Oc1cccc(Sc2nnc(Cl)cc2C2=NOC[C@H](Cc3ccc(Cl)cc3Cl)N2)c1 (racemic) [Compound I-019] | 4.99 | –
20 | C=CCON=C(N)c1c(Br)nnc(C)c1C [Compound 27-01] | – | chromatographic logP [1, 4]: 1.28
21 | Cc1ccc(Sc2nnc3ccccc3c2C2=NOC[C@H](c3ccc(C)s3)N2)c(C)c1 (racemic) [Compound I-052] | 3.83 | –
22 | Cc1ccc(Sc2nnc(C)c(C)c2C2=NOC[C@@H](c3cc(C)sc3C)N2)c(C)c1 (racemic) [Compound I-087] | 3.68 | inhibition at 50 µM [2]: 70 to 79%
23 | Cc1cc([C@@H]2CON=C(c3c(Sc4ccc(C(C)(C)C)cc4)nnc(C)c3C)N2)c(C)s1 (racemic) [Compound I-132] | 4.32 | –

Row | Structure (SMILES) | chromatographic logP [1, 3] | further results
24 | Cc1ccc([C@@H]2CON=C(c3c(Sc4ccc(F)cc4)nnc(C)c3C)N2)s1 (racemic) [Compound I-063] | 2.82 | inhibition at 50 µM [2]: 70 to 79%
25 | Cc1ccc([C@H]2CON=C(c3c(Sc4ccc(C(C)(C)C)cc4)nnc4ccccc34)N2)s1 (racemic) [Compound I-113] | 4.43 | –
26 | Cc1ccc(Sc2nnc(C)c(C)c2C2=NOC[C@@H](c3ccc(C)s3)N2)cc1 (racemic) [Compound I-094] | 3.01 | –
27 | Cc1ccc([C@H]2CON=C(c3c(Sc4cc(Cl)ccc4Cl)nnc4ccccc34)N2)s1 (racemic) [Compound I-096] | 3.88 | –
28 | Cc1cc([C@H]2CON=C(c3c(Sc4cccc5ccccc45)nnc(C)c3C)N2)c(C)s1 (racemic) [Compound I-037] | 3.67 | –
29 | Cc1ccc([C@H]2CON=C(c3c(Sc4ccccc4Cl)nnc(C)c3C)N2)s1 (racemic) [Compound I-114] | 2.93 | inhibition at 50 µM [2]: 90 to 100%
30 | COc1ccc(Sc2nnc(C)c(C)c2C2=NOC[C@@H](c3ccc(C)s3)N2)cc1 (racemic) [Compound I-054] | 2.76 | –
31 | Cc1cc([C@@H]2CON=C(c3c(Sc4ccc(Cl)cc4Cl)nnc(C)c3C)N2)c(C)s1 (racemic) [Compound I-039] | 3.87 | –
32 | Cc1ccc([C@H]2CON=C(c3c(Sc4ccc(Cl)cc4Cl)nnc4ccccc34)N2)s1 (racemic) [Compound I-058] | 3.96 | –
33 | Cc1ccc(C)c(Sc2nnc3ccccc3c2C2=NOC[C@H](c3ccc(C)s3)N2)c1 (racemic) [Compound I-123] | 3.8 | –
34 | Cc1ccc([C@H]2CON=C(c3c(Sc4cc(Cl)ccc4Cl)nnc(C)c3C)N2)s1 (racemic) [Compound I-053] | 3.4 | –
35 | Cc1ccc(Sc2nnc3ccccc3c2C2=NOC[C@H](c3ccc(C)s3)N2)cc1 (racemic) [Compound I-101] | 3.49 | –
36 | Cc1ccc([C@H]2CON=C(c3c(Sc4ccc(C)c(C)c4)nnc(C)c3C)N2)s1 (racemic) [Compound I-093] | 3.26 | inhibition at 50 µM [2]: 90 to 100%
37 | Cc1ccc([C@H]2CON=C(c3c(Sc4cc(Cl)cc(Cl)c4)nnc(C)c3C)N2)s1 (racemic) [Compound I-115] | 3.68 | inhibition at 50 µM [2]: 90 to 100%
38 | Cc1ccc([C@@H]2CON=C(c3c(Sc4ccc5ccccc5c4)nnc(C)c3C)N2)s1 (racemic) [Compound I-138] | 3.33 | –
39 | Cc1cc([C@H]2CON=C(c3c(Sc4ccc(Cl)c(Cl)c4)nnc(C)c3C)N2)c(C)s1 (racemic) [Compound I-107] | 3.92 | inhibition at 50 µM [2]: 80 to 89%
40 | Cc1ccc([C@H]2CON=C(c3c(Sc4cccc5ccccc45)nnc(C)c3C)N2)s1 (racemic) [Compound I-092] | 3.3 | –
41 | Cc1ccc(C)c(Sc2nnc(C)c(C)c2C2=NOC[C@H](c3ccc(C)s3)N2)c1 (racemic) [Compound I-043] | 3.28 | –
42 | Cc1cc([C@H]2CON=C(c3c(Sc4ccc(Cl)cc4)nnc(C)c3C)N2)c(C)s1 (racemic) [Compound I-134] | 3.49 | –
43 | Cc1ccc([C@H]2CON=C(c3c(Sc4cc(Cl)cc(Cl)c4)nnc4ccccc34)N2)s1 (racemic) [Compound I-120] | 4.18 | –
44 | Cc1ccc([C@@H]2CON=C(c3c(Sc4ccc(Cl)cc4Cl)nnc(C)c3C)N2)s1 (racemic) [Compound I-075] | 3.45 | –
45 | Cc1ccc([C@H]2CON=C(c3c(Sc4ccccn4)nnc(C)c3C)N2)s1 (racemic) [Compound I-105] | 2.03 | –
46 | Cc1ccc([C@H]2CON=C(c3c(Sc4ccc5ccccc5c4)nnc4ccccc34)N2)s1 (racemic) [Compound I-098] | 3.81 | –
